# Article PMC12608320, “Insecticidal Potential of Aniba canelilla (H.B.K.) Mez Essential Oil Against Aedes aegypti: Larvicidal and Adulticidal Activities, Mechanism of Action, and Formulation Development” (Plants, 2025)
# Values joined by “and” are separate entries in the source; they are usually repeats but may differ in a detail not shown here. Equal entries are not always repeated.
# Key:
# [1] = molecular target: T1, acetylcholinesterase from D. melanogaster adults homogenate (Drosophila melanogaster, UniProt P07140); assay: AChE inhibition (Ellman), D. melanogaster adult homogenate; type: biochemical; conditions: for inhibition at 1500 µg/mL: at 1.5 mg∙mL^−1 (1500 µg mL^−1), read-out: Inhibition Rate (%) ± SD
# T1 construct: from tissue; host or cells: whole-body homogenate supernatant of adult D. melanogaster (laboratory colony)
# Procedure: (§1) A total of 250 third instar larvae (370.1 mg) and 250 adults (163.8 mg) of A. aegypti, together with 150 adults of D. melanogaster (134.6 mg), were collected. Each group was placed in a separate 50 mL Falcon tube and frozen at −20 °C to arrest metabolic activity. After freezing, 5 mL of ultrapure water were added to each tube, and the contents were mechanically homogenized on ice using an IKA Ultra-Turrax® homogenizer (model T10BS32) at speed setting 4 for 5 min. The resulting homogenates were transferred to centrifuge tubes and spun at 10,000 rpm for 5 min at 4 °C in a refrigerated centrifuge. Supernatants were carefully collected, aliquoted and stored at −20 °C for biochemical analyses performed within 24 h. After preparation, the homogenates contained 50 insects/mL (larvae) and 30 insects/mL (adult Aedes aegypti and Drosophila melanogaster). These preparations were subsequently used for acetylcholinesterase inhibition activity, total-protein quantification by the BCA method, and calculation of specific catalytic units per individual.
# (§2) Percentage inhibition of AChE was determined by the standard Ellman colorimetric method, with minor adaptations. […] After a 10 min incubation at 30 °C, 20 µL of DTNB (3.0 mM) and 20 µL of acetylthiocholine iodide (10.0 mM) were added. Plates were then incubated for a further 30 min at 30 °C, and end-point absorbance was read at 405 nm and pathlength 0.62 cm on a SpectraMax® 190 microplate reader (Molecular Devices^TM, SoftMax® Pro 5; serial no. SMP500-11007-TIQG).
# Trypanosoma evansi = tested on: Trypanosoma evansi; set-up: method as in PMID 27988226; conditions: at 0.5–2.0%; cited from earlier work
# Aedes aegypti females = assay: Adulticidal bottle bioassay (WHO/CDC) against Aedes aegypti females; type: in vivo; conditions: preliminary tests
# Procedure: A. aegypti colony was maintained at 26 ± 1 °C, 80 ± 5% relative humidity, and a 12 h light–dark cycle. […] Glass bottles (295 mL) were coated with 1 mL of essential oil solution in analytical-grade acetone. Bottles were left open for 10 min to allow complete solvent evaporation, then acclimated for 1 h with the cap removed. Each bottle received 15–25 unfed adult female A. aegypti and was exposed to 200–50 ppm of the test compound. Deltamethrin (K-Othrine®) at 10 ppm served as the positive control, and acetone-treated bottles as the negative control. Assays were conducted in quadruplicate, with mortality recorded at 15 min intervals over 90 min of continuous exposure. After 90 min, mosquitoes were gently transferred to 500 mL cylindrical paper containers covered with nylon mesh and kept under colony conditions (26 °C, 80% RH, 12 h photoperiod) for knockdown assessment 24 h post-exposure.
# macrophages = tested on: macrophages; set-up: method as in doi:10.1590/S0103-50532009000600011; conditions: cited from earlier work
# [2] = molecular target: acetylcholinesterase from A. aegypti adults homogenate (Aedes aegypti, UniProt Q6A2E2); assay: AChE inhibition (Ellman), A. aegypti adult homogenate; type: biochemical; conditions: for inhibition at 1500 µg/mL: at 1.5 mg∙mL^−1 (1500 µg mL^−1), read-out: Inhibition Rate (%) ± SD
# Procedure: as §1, §2
# [3] = molecular target: T2, Acetylcholinesterase (AChE) from Electrophorus electricus (Electrophorus electricus, UniProt O42275); assay: AChE inhibition (Ellman), commercial enzyme; type: biochemical; conditions: for IC50: commercial enzyme 0.15 U mL^−1
# T2 construct: purchased C3389-2KU
# Procedure: as §2
# Aedes aegypti larvae = assay: Larvicidal activity against Aedes aegypti third instar larvae; conditions: for LC50 ± SEM (LCL-UCL): L3 larvae
# Procedure: Eggs of the Rockefeller strain of Aedes aegypti were hatched in filtered water, and larvae were reared under controlled conditions (28 ± 1 °C; 12 h photoperiod) until reaching the third instar (L3). […] Each test condition, including controls, was run in quadruplicate. […] Formulations (PEOANIB, PNFTANE, PNFTENE) were applied with the same protocol used for DMSO-dissolved samples, keeping the final solvent concentration at 1% (v/v) of the total water volume.
# Negative controls contained either DMSO (200 µL) alone or blank nanomicelles (NBr) at a volume matching the highest concentration tested, whereas the positive control comprised temephos at 1 µg mL^−1. After 14 days of preparation of the formulation, an activity confirmation test was performed at fixed concentrations of PNFTANE (70 ppm) and PNFTENE (5 ppm) formulations. The assays were performed in quadruplicate.
# [4] = molecular target: acetylcholinesterase from A. aegypti larvae homogenate (Aedes aegypti, UniProt Q6A2E2); assay: AChE inhibition (Ellman), A. aegypti L3 larvae homogenate; type: biochemical; conditions: for inhibition at 1500 µg/mL: at 1.5 mg∙mL^−1 (1500 µg mL^−1), read-out: Inhibition Rate (%) ± SD
# Procedure: as §1, §2
# Leishmania amazonensis = tested on: Leishmania amazonensis; set-up: method as in doi:10.1590/S0103-50532009000600011; conditions: cited from earlier work
# [5] = set-up: method as in PMID 20406629; conditions: Wistar rats, 5–10 mg/kg; cited from earlier work
# Artemia salina nauplii = assay: Toxicity test on Artemia salina nauplii (non-target); type: in vivo; conditions: 24 h, metanauplii
# Procedure: Toxicity assays with Artemia salina followed the procedure of Meyer and collaborators with adaptations like those of [86, 107]. For cyst hatching, 25 mg of eggs were placed in a cuboid-glass vessel containing 600 mL of artificial seawater (38 g L^−1 in distilled water) and incubated at 28–30 °C under continuous illumination from a 40 W incandescent lamp. After 24 h, the nauplii (first larval stage) were transferred to fresh saline and reared for an additional 24 h under the same conditions to obtain metanauplii (second larval stage), which were used in the bioassays. Ten metanauplii were exposed to 10 mL of saline containing the test samples dissolved in DMSO. […] After dosing, organisms were maintained at 28–30 °C under artificial light for 24 h. Mortality defined as immobility or sinking to the bottom was recorded, and LC50 values were calculated for each sample. All experiments were performed in triplicate with independent replicates under identical conditions to ensure reproducibility.
# Artemia salina = conditions: cited from earlier work
# A. aegypti = conditions: cited from earlier work
structure (smiles),measurement,setting,value
"O=[N+]([O-])CCc1ccccc1 [NFTANE, 1-Nitro-2-phenylethane]",inhibition at 1500 µg/mL,[1],≤ 10%
same,activity against Trypanosoma evansi,Trypanosoma evansi,shows activity
same,adulticidal effects compared with EOANIB,Aedes aegypti females,comparable adulticidal effects to EOANIB
same,fold less cytotoxic to macrophages than pentamidine,macrophages,approximately 2.5 fold
same,inhibition at 1500 µg/mL,[2],≤ 10%
same,Slope ± SEM,[3],1.175 ± 0.066
same,IC50,[3],1250 µM
same,LC50 ± SEM (LCL-UCL),Aedes aegypti larvae; 24 h exposure,84.8 ppm and 85.8 ppm
same,LC50 ± SEM (LCL-UCL),Aedes aegypti larvae; 48 h exposure,83.6 ppm
same,LC50,Aedes aegypti larvae; exposure time not given,84–87 ppm
same,inhibition at 1500 µg/mL,[4],≤ 10%
same,IC50,Leishmania amazonensis,40 µg/mL
same,effect on blood pressure,[5],significantly lowering blood pressure
"O=[N+]([O-])C=Cc1ccccc1 [NFTENE, 1-Nitro-2-phenylethene]",IC50,[1],21000 µM
same,Slope ± SEM,[1],2.02 ± 0.20
same,inhibition at 500 µg/mL,[1]; 500 μg.mL^−1,2.4%
same,inhibition at 1000 µg/mL,[1]; 1000 μg.mL^−1,9.1%
same,inhibition at 1500 µg/mL,[1],18.4 ± 2.11%
same,LC50 ± SEM (CI),Artemia salina nauplii,1.9 ppm
same,adult mortality,Aedes aegypti females; 100 ppm,no adult mortality
same,Slope ± SEM,[2],0.86 ± 0.07
same,inhibition at 100 µg/mL,[2]; 100 μg.mL^−1,4.5%
same,inhibition at 250 µg/mL,[2]; 250 μg.mL^−1,11.2%
same,inhibition at 500 µg/mL,[2]; 500 μg.mL^−1,15.1%
same,inhibition at 1000 µg/mL,[2]; 1000 μg.mL^−1,26.6%
same,inhibition at 1500 µg/mL,[2],34 ± 2.18%
same,Slope ± SEM,[3],1.283 ± 0.094
same,IC50,[3],998 µM
same,LC50 ± SEM (LCL-UCL),Aedes aegypti larvae; 24 h exposure,10.9 ppm
same,LC50 ± SEM (LCL-UCL),Aedes aegypti larvae; 48 h exposure,7.7 ppm
same,Slope ± SEM,[4],0.72 ± 0.06
same,inhibition at 25 µg/mL,[4]; 25 μg.mL^−1,15.5%
same,inhibition at 50 µg/mL,[4]; 50 μg.mL^−1,14.9%
same,inhibition at 100 µg/mL,[4]; 100 μg.mL^−1,23.1%
same,inhibition at 250 µg/mL,[4]; 250 μg.mL^−1,26.8%
same,inhibition at 500 µg/mL,[4]; 500 μg.mL^−1,38%
same,inhibition at 1000 µg/mL,[4]; 1000 μg.mL^−1,57.1%
same,inhibition at 1500 µg/mL,[4],71.8 ± 2.21%
"COP(=S)(OC)Oc1ccc(Sc2ccc(OP(=S)(OC)OC)cc2)cc1 [Temephos, reference compound]",mortality at 1 ppm,"Aedes aegypti larvae; Aedes aegypti, read-out: larval mortality",100%
CCOP(=S)(OCC)Oc1nc(Cl)c(Cl)cc1Cl [chlorpyrifos],LC50,Artemia salina,0.38 ppm
"N=C(N)c1ccc(OCCCCCOc2ccc(C(=N)N)cc2)cc1 [pentamidine, reference compound]",IC50,Leishmania amazonensis,4.8 µg/mL
CCCSP(=O)(OCC)Oc1ccc(Br)cc1Cl (centres unmarked) [profenofos],LC50,Artemia salina,7.71 ppm
CC1=CCC2CC1C2(C)C (stereo not drawn) [α-pinene],LC50 (adulticidal activity of minor constituents),A. aegypti,17.3–56.5 ppm
C=C1CC/C=C(\C)CC[C@@H]2[C@@H]1CC2(C)C [β-caryophyllene],LC50 (adulticidal activity of minor constituents),A. aegypti,26 ppm
